These results are taken from patent publication US12624018B1, “Inhibitors of RIPK2 and medical uses thereof” (Odyssey Therapeutics, Inc., priority 2022, dated 2026).

By IC50 is commonly meant the point on the concentration scale where inhibition reaches its midpoint.

In the assay the target is T1, RIPK2 enzyme (Homo sapiens, UniProt O43353).
T1 construct: purchased Carna 09-128
T1 sequence (O43353 1-299 limits assumed): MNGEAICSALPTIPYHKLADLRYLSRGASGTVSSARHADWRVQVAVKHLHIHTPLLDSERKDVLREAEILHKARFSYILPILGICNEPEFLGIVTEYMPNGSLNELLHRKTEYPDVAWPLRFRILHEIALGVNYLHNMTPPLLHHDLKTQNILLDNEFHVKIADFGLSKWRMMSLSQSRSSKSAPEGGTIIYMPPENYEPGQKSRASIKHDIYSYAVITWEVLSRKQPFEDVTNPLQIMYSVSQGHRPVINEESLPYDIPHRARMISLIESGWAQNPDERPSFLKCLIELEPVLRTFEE
The assay is described as follows: RIPK2 inhibition (ADP-Glo Kinase Assay). It is filed as biochemical. Particulars: RIPK2 5 nM, ATP 150 μM, MBP substrate, read-out: RIPK2 IC50. In outline: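 Human RIPK2 (5 nM) preincubated with compound 30 min at room temperature in 50 mM HEPES pH 7.5, 10 mM MgCl2, 2 mM DTT, 1 mM EGTA, 0.01% Brij-35, 0.05% BSA; native swine MBP as substrate. ADP formed quantified by ADP-Glo luminescence; percent inhibition relative to DMSO and no-enzyme controls.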
As for `Cc1cc(CC(=O)Nc2noc(C(C)(C)C)n2)ccc1Oc1ncnc2ccc(OC3CCN(C)CC3)cc12` [Compound 184, N-(5-(tert-butyl)-1,2,4-oxadiazol-3-yl)-2-(3-methyl-4-((6-((1-methylpiperidin-4-yl)oxy)quinazolin-4-yl)oxy)phenyl) acetamide], the IC50 turned out to be 3 nM.

In the case of `Cc1c(Oc2ncnc3ccc(OC4CCN(C)CC4)cc23)ccc(CC(=O)Nc2cc(C(C)(C)C)n[nH]2)c1F` [Compound 186, N-(5-(tert-butyl)-1H-pyrazol-3-yl)-2-(2-fluoro-3-methyl-4-((6-((1-methyl-piperidin-4-yl)oxy)quinazolin-4-yl)oxy)phenyl) acetamide], the IC50 was below 2.5 nM.

Take `Cc1cc(CC(=O)Nc2cnn(C(C)(C)C)c2)ccc1Oc1ccnc2ccc(OC[C@@H]3CCNC3)cc12` [Compound 192, (R)-N-(1-(tert-butyl)-1H-pyrazol-4-yl)-2-(3-methyl-4-((6-(pyrrolidin-3-ylmethoxy)quinolin-4-yl)oxy)phenyl) acetamide]: the IC50 was below 2.5 nM.

In the case of `Cc1cc(CC(=O)Nc2cnn(C(C)(C)C)c2)ccc1Oc1ccnc2ccc(OC[C@H]3CCNC3)cc12` [Compound 193, (S)-N-(1-(tert-butyl)-1H-pyrazol-4-yl)-2-(3-methyl-4-((6-(pyrrolidin-3-ylmethoxy)quinolin-4-yl)oxy)phenyl) acetamide], the IC50 was below 2.5 nM.

Take `Cc1cc(CC(=O)Nc2cnn(C(C)(C)C)c2)ccc1Oc1ccnc2ccc(OC[C@@H]3CCCNC3)cc12` [Compound 194, (R)-N-(1-(tert-butyl)-1H-pyrazol-4-yl)-2-(3-methyl-4-((6-(piperidin-3-ylmethoxy)quinolin-4-yl)oxy)phenyl) acetamide]: the IC50 is below 2.5 nM.

With `Cc1cc(CC(=O)Nc2cnn(C(C)(C)C)c2)ccc1Oc1ccnc2ccc(OC[C@H]3CCCNC3)cc12` [Compound 195, (S)-N-(1-(tert-butyl)-1H-pyrazol-4-yl)-2-(3-methyl-4-((6-(piperidin-3-ylmethoxy)quinolin-4-yl)oxy)phenyl) acetamide], the IC50 was below 2.5 nM.

On to `[2H]C([2H])([2H])S(=O)(=O)c1ccc2nccc(Oc3ccc(CC(=O)Nc4cnn(C(C)(C)C)c4)cc3C)c2c1` [Compound 198, N-(1-(tert-butyl)-1H-pyrazol-4-yl)-2-(3-methyl-4-((6-((methyl-d3)sulfonyl)quinolin-4-yl)oxy)phenyl)acetamide], for which the IC50 is below 2.5 nM.

As to `Cc1cc(CC(=O)Nc2cnn(C(C)(C)C)c2)ccc1Oc1ccnc2ccc(S(=O)(=O)CCO)cc12` [Compound 203, N-(1-(tert-butyl)-1H-pyrazol-4-yl)-2-(4-((6-((2-hydroxyethyl)sulfonyl)quinolin-4-yl)oxy)-3-methylphenyl)acetamide], the IC50 was below 2.5 nM.

Regarding `COCCS(=O)(=O)c1ccc2nccc(Oc3ccc(CC(=O)Nc4cnn(C(C)(C)C)c4)cc3C)c2c1` [Compound 204, N-(1-(tert-butyl)-1H-pyrazol-4-yl)-2-(4-((6-((2-methoxyethyl)sulfonyl)quinolin-4-yl)oxy)-3-methylphenyl)acetamide], the half-maximal inhibitory concentration (IC50) was below 2.5 nM.

Consider `Cc1cc(CC(=O)Nc2cnn(C(C)(C)C)c2)ccc1Oc1ccnc2ccc(S(=O)(=O)CC3CC3)cc12` [Compound 205, N-(1-(tert-butyl)-1H-pyrazol-4-yl)-2-(4-((6-((cyclopropylmethyl)sulfonyl)quinolin-4-yl)oxy)-3-methylphenyl)acetamide], for which the IC50 was below 2.5 nM.

Consider `Cc1cc(CC(=O)Nc2cnn(C(C)(C)C)c2)ccc1Oc1ccnc2ccc(S(=O)(=O)C(C)C)cc12` [Compound 206, N-(1-(tert-butyl)-1H-pyrazol-4-yl)-2-(4-((6-(isopropylsulfonyl)quinolin-4-yl)oxy)-3-methylphenyl)acetamide], for which the concentration for half-maximal inhibition (IC50) is below 2.5 nM.

For `Cc1cc(CC(=O)Nc2cnn(C(C)(C)C)c2)ccc1Oc1ccnc2ccc(C(=O)N3CCNCC3)cc12` [Compound 207, N-(1-(tert-butyl)-1H-pyrazol-4-yl)-2-(3-methyl-4-((6-(piperazine-1-carbonyl)quinolin-4-yl)oxy)phenyl) acetamide], the half-inhibitory concentration (IC50) was below 2.5 nM.

With `Cc1cc(CC(=O)Nc2cnn(C(C)(C)C)c2)ccc1Oc1ccnc2ccc(C(=O)N3CC(F)C3)cc12` [Compound 208, N-(1-(tert-butyl)-1H-pyrazol-4-yl)-2-(4-((6-(3-fluoro-azetidine-1-carbonyl)quinolin-4-yl)oxy)-3-methyl-phenyl) acetamide], the IC50 is below 2.5 nM.

With `Cc1cc(CC(=O)Nc2cnn(C(C)(C)C)c2)ccc1Oc1ccnc2ccc(C(=O)N3CC(C#N)C3)cc12` [Compound 209, N-(1-(tert-butyl)-1H-pyrazol-4-yl)-2-(4-((6-(3-cyano-azetidine-1-carbonyl)quinolin-4-yl)oxy)-3-methyl-phenyl) acetamide], the IC50 was below 2.5 nM.

As to `Cc1cc(CC(=O)Nc2cnn(C(C)(C)C)c2)ccc1Oc1ccnc2ccc(C(=O)N3CCCC3)cc12` [Compound 210, N-(1-(tert-butyl)-1H-pyrazol-4-yl)-2-(3-methyl-4-((6-(pyrrolidine-1-carbonyl)quinolin-4-yl)oxy)phenyl) acetamide], the IC50 is below 2.5 nM.

Turning to `Cc1cc(CC(=O)Nc2cnn(C(C)(C)C)c2)ccc1Oc1ccnc2ccc(OC3CC4(CNC4)C3)cc12` [Compound 211, 2-(4-((6-((2-azaspiro[3.3]heptan-6-yl)oxy)quinolin-4-yl)oxy)-3-methyl-phenyl)-N-(1-(tert-butyl)-1H-pyrazol-4-yl)acetamide], the 50% inhibitory concentration (IC50) was below 2.5 nM.

Regarding `Cc1cc(CC(=O)Nc2cnn(C(C)C)c2)ccc1Oc1ccnc2ccc(S(C)(=O)=O)cc12` [Compound 212, N-(1-isopropyl-1H-pyrazol-4-yl)-2-(3-methyl-4-((6-(methylsulfonyl)quinolin-4-yl)oxy)phenyl)acetamide], the concentration for half-maximal inhibition (IC50) was below 2.5 nM.

Turning to `Cc1cc(CC(=O)Nc2cnn(C3CCC3)c2)ccc1Oc1ccnc2ccc(S(C)(=O)=O)cc12` [Compound 213, N-(1-cyclobutyl-1H-pyrazol-4-yl)-2-(3-methyl-4-((6-(methylsulfonyl)quinolin-4-yl)oxy)phenyl)acetamide], the IC50 was below 2.5 nM.

`Cc1cc(CC(=O)Nc2cnn(C3CCCC3)c2)ccc1Oc1ccnc2ccc(S(C)(=O)=O)cc12` [Compound 214, N-(1-cyclopentyl-1H-pyrazol-4-yl)-2-(3-methyl-4-((6-(methylsulfonyl)quinolin-4-yl)oxy)phenyl)acetamide]: the half-maximal inhibitory concentration (IC50) was below 2.5 nM.

Consider `COc1cc2nccc(Oc3ccc(CC(=O)Nc4cnn(C(C)(C)C)c4)cc3C)c2cc1S(C)(=O)=O` [Compound 216, N-(1-(tert-butyl)-1H-pyrazol-4-yl)-2-(4-((7-methoxy-6-(methylsulfonyl)quinolin-4-yl)oxy)-3-methylphenyl) acetamide], for which the 50% inhibitory concentration (IC50) was below 2.5 nM.

`CCOc1cc2nccc(Oc3ccc(CC(=O)Nc4cnn(C(C)(C)C)c4)cc3C)c2cc1S(C)(=O)=O` [Compound 217, N-(1-(tert-butyl)-1H-pyrazol-4-yl)-2-(4-((7-ethoxy-6-(methylsulfonyl)quinolin-4-yl)oxy)-3-methylphenyl) acetamide]: the IC50 was below 2.5 nM.

As to `Cc1cc(CC(=O)Nc2cnn(C(C)(C)C)c2)ccc1Oc1ccnc2cc(OC(F)F)c(S(C)(=O)=O)cc12` [Compound 218, N-(1-(tert-butyl)-1H-pyrazol-4-yl)-2-(4-((7-(difluoromethoxy)-6-(methylsulfonyl)quinolin-4-yl)oxy)-3-methylphenyl) acetamide], the IC50 was below 2.5 nM.
